Drawing on US11878970B2, “Allosteric chromenone inhibitors of phosphoinositide 3-kinase (PI3K) for the treatment of disease” (Petra Pharma Corporation, priority 2021, dated 2024), this text covers IC50 for 22 molecules.

Bounds are passed on as bounds.

Experiment [1] addresses T1, PI3K-α (PIK3CA) wild-type (WT), p110α/p85α complex (Homo sapiens, UniProt P42336).
T1 construct: Recombinant, catalytically active human full length PIK3KA Wild-type and H1047R mutant; 6×His (N); purchased EMD Millipore Sigma 14-602M
Description: PI3K-alpha kinase (PIK3CA) biochemical activity, ADP-Glo, wild-type. In short, it runs like this:
(§1)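 ADP formation measured by ADP-Glo luminescence after reaction at 27 °C to about 10% ATP turnover, using 20 uM ATP, 50 uM PIP2diC8 or soy PI lipid, HEPES pH 7.4 with MgCl2. Enzyme (1-5 nM WT or H1047R p110α/p85α) and compound preincubated 1 h first; 10-point 1:3 curves fitted four-parameter for IC50.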

The target in experiment [2] is T2, PI3K-α (PIK3CA) H1047R mutant, p110α/p85α complex (Homo sapiens, UniProt P42336, H1047R).
T2 construct: Recombinant, catalytically active human full length PIK3KA Wild-type and H1047R mutant; 6×His (N); purchased EMD Millipore Sigma 14-792M
Put plainly: PI3K-alpha kinase (PIK3CA) biochemical activity, ADP-Glo, H1047R mutant. In short, it runs like this:
as §1
A general note: ADP-Glo turns the ADP formed in a reaction into a luminescent signal.

The target in experiment [3] is PI3K-α (PIK3CA) in MDA-MB-453 cells (Homo sapiens, UniProt P42336). Description: PI3K-alpha kinase (PIK3CA) in vitro cell based assay, MDA-MB-453 cells, SureFire Ultra AlphaLisa. Particulars: read-out: PI3K-α (PIK3CA) in vitro cell based assay IC50. In short, it runs like this: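 Cells treated 3 h in serum-free MEM with 1 μg/mL insulin, 10-point 1:3 series in 0.3% DMSO, then lysed for SureFire Ultra AlphaLisa read-out. Inhibition normalized to DMSO (max) and 1 μM GDC-0032 (min); duplicate averages fitted by 4-parameter logistic for relative IC50.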
Background: In Alpha technology, singlet oxygen from a donor bead excites a nearby acceptor bead.

Setting [4] is: PIP2diC8 lipid substrate (footnote 1).

Sequence of PI3K-α (PIK3CA) in MDA-MB-453 cells (P27986 2-724): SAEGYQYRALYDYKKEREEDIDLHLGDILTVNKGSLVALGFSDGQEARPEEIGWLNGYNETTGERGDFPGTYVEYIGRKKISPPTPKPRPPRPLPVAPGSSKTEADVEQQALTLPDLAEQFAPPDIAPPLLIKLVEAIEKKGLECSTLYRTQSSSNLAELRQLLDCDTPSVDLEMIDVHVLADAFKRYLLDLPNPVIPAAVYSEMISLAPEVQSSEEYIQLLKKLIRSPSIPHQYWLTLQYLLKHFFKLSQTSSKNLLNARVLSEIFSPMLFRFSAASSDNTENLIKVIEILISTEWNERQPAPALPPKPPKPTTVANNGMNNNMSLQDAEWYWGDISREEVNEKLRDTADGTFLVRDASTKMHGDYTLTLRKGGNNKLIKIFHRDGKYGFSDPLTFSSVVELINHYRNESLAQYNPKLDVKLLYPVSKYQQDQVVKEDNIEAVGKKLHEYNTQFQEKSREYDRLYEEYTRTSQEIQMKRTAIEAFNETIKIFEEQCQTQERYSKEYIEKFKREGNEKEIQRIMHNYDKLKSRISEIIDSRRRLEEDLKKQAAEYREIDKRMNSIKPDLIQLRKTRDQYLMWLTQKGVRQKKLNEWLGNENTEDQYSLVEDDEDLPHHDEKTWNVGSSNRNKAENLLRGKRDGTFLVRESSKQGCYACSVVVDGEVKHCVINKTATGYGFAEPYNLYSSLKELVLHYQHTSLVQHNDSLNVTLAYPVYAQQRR
Sequence of PI3K-α (PIK3CA) in MDA-MB-453 cells (P42336 whole entry): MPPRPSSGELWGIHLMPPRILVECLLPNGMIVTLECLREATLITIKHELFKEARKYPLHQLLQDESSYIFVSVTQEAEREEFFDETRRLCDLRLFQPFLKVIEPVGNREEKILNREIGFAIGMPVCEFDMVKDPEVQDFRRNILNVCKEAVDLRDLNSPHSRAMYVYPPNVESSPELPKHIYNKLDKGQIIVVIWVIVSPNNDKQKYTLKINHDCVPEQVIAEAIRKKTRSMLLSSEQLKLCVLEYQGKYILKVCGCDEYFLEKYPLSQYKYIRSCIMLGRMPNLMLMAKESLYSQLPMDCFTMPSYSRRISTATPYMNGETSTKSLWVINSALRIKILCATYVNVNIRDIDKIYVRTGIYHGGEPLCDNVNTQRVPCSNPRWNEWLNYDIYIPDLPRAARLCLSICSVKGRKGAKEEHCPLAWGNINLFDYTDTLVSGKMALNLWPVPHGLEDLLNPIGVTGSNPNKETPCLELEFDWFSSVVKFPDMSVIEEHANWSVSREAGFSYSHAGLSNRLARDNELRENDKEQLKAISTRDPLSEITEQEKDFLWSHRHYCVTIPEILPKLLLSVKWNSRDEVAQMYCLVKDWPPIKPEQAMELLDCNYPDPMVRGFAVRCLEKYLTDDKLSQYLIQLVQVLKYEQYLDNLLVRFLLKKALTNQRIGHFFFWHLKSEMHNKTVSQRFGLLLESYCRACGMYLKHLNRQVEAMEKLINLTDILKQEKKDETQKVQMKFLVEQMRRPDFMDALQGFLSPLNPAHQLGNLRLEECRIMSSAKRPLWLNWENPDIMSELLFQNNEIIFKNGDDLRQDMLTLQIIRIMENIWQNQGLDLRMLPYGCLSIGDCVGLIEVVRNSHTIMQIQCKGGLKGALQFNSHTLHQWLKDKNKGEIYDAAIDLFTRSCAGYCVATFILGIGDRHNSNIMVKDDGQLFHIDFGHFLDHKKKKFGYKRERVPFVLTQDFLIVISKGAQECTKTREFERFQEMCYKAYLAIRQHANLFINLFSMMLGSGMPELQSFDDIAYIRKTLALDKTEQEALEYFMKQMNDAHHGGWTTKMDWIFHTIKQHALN
T2 sequence (P42336 whole entry H1047R): as the sequence (P42336 whole entry) above, with H1047R counted along it
T2 sequence (P27986 whole entry partner): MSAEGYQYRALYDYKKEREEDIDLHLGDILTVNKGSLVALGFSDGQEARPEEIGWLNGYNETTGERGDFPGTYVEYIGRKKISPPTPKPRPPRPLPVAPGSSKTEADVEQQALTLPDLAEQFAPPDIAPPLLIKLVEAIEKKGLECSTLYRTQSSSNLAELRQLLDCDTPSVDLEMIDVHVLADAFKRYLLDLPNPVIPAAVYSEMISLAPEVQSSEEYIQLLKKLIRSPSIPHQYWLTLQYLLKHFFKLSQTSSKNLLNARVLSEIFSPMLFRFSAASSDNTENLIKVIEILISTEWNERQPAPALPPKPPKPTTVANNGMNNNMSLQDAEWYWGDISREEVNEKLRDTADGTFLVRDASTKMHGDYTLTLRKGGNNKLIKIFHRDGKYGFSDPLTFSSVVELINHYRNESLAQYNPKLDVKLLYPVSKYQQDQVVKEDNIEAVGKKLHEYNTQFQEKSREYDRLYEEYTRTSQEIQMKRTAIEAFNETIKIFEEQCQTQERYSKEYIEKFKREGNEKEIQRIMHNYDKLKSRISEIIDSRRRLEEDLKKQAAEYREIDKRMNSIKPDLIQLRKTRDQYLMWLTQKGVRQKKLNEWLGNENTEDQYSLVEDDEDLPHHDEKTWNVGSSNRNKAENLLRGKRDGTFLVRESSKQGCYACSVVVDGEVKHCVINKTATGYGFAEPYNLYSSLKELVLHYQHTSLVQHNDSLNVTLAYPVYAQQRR

The term IC50 denotes the concentration that inhibits the measured activity by half. For the molecule `CC(Nc1ccc(Cl)nc1C(=O)O)c1cc(C(F)(F)F)cc2c(=O)cc(-c3cc(Cl)c4nn(C)cc4c3)oc12` (single isomer, unassigned) [Example 193, 6-Chloro-3-[1-[2-(7-chloro-2-methyl-indazol-5-yl)-4-oxo-6-(trifluoromethyl)chromen-8-yl]ethylamino]pyridine-2-carboxylic acid], the results for the IC50 in experiment [1] (Soy PI lipid substrate), in experiment [2] (Soy PI lipid substrate) and in experiment [3] were 500 to 1000 nM, below 500 nM and below 50 nM, respectively.
For the molecule `Cc1cc(-c2cc(=O)c3cc(C(F)(F)F)cc(C(C)Nc4ccc(Cl)nc4C(=O)O)c3o2)cc2cn(C)nc12` (single isomer, unassigned) [Example 191, 6-Chloro-3-[1-[2-(2,7-dimethylindazol-5-yl)-4-oxo-6-(trifluoromethyl)chromen-8-yl]ethylamino]pyridine-2-carboxylic acid], the results for the IC50 in experiment [1] (Soy PI lipid substrate), in experiment [2] (Soy PI lipid substrate) and in experiment [3] were 500 to 1000 nM, below 500 nM and 100 to 500 nM, respectively.
On the same counts, the results for `Cc1cc(C(C)Nc2ccc(Cl)nc2C(=O)O)c2oc(-c3ccc4cc[nH]c4n3)cc(=O)c2c1` (single isomer, unassigned) [Example 215, 6-Chloro-3-[1-[6-methyl-4-oxo-2-(1H-pyrrolo[2,3-b]pyridin-6-yl)chromen-8-yl]ethylamino]pyridine-2-carboxylic acid] are 500 to 1000 nM, below 500 nM and below 50 nM.
Regarding `Cc1cc([C@@H](C)Nc2ccc(Br)nc2C(=O)O)c2oc(-c3ccc4nn(C)cc4c3)c(C)c(=O)c2c1` [Example 244, 6-Bromo-3-[[(1R)-1-[3,6-dimethyl-2-(2-methylindazol-5-yl)-4-oxo-chromen-8-yl]ethyl]amino]pyridine-2-carboxylic acid], the IC50 was below 500 nM in experiment [1] (Soy PI lipid substrate), below 500 nM in experiment [2] (Soy PI lipid substrate) and below 50 nM in experiment [3].
Consider `Cc1cc(C(C)Nc2cccc(F)c2C(=O)O)c2oc(-c3nn(C)c4ccccc34)cc(=O)c2c1` (single isomer, unassigned) [Example 189, 2-Fluoro-6-[1-[6-methyl-2-(1-methylindazol-3-yl)-4-oxo-chromen-8-yl]ethylamino]benzoic acid], for which the IC50 in experiment [1] (Soy PI lipid substrate) was 500 to 1000 nM; in experiment [2] (Soy PI lipid substrate) it was below 500 nM; in experiment [3], 50 to 100 nM.
Taken in the same sequence, the figures for `Cc1cc(C(C)Nc2ccccc2C(=O)O)c2oc(-c3ccc4nc(C(F)(F)F)cn4c3)cc(=O)c2c1` (single isomer, unassigned) [Example 70, 2-[1-[6-Methyl-4-oxo-2-[2-(trifluoromethyl)imidazo[1,2-a]pyridin-6-yl]chromen-8-yl]ethylamino]benzoic acid] were 1000 to 5000 nM, below 500 nM and 50 to 100 nM.
`Cc1cc(C(C)Nc2cccc(F)c2C(=O)O)c2oc(-c3ccc4nn(C)cc4c3)cc(=O)c2c1` (single isomer, unassigned) [Example 171, 2-Fluoro-6-[1-[6-methyl-2-(2-methylindazol-5-yl)-4-oxo-chromen-8-yl]ethylamino]benzoic acid]: the concentration for half-maximal inhibition (IC50) in experiment [1] (Soy PI lipid substrate) is 1000 to 5000 nM; in experiment [2] (Soy PI lipid substrate), 1000 to 5000 nM; in experiment [3], above 500 nM.
Consider `Cc1cc(C(C)Nc2ccccc2C(=O)O)c2oc(-c3ccc4c(c3)CN(C)C4=O)cc(=O)c2c1` (single isomer, unassigned) [Example 32, 2-[1-[6-Methyl-2-(2-methyl-1-oxo-isoindolin-5-yl)-4-oxo-chromen-8-yl]ethylamino]benzoic acid], for which the IC50 in experiment [1] (Soy PI lipid substrate) is 5000 to 10000 nM; in experiment [2] (Soy PI lipid substrate), above 10000 nM; in experiment [3], above 500 nM.
For the molecule `Cc1cc(C(C)Nc2ccccc2C(=O)O)c2oc(-c3cnn4ccccc34)cc(=O)c2c1` (single isomer, unassigned) [Example 125, 2-[1-(6-Methyl-4-oxo-2-pyrazolo[1,5-a]pyridin-3-yl-chromen-8-yl)ethylamino]benzoic acid], the IC50 in experiment [1] (Soy PI lipid substrate) is 1000 to 5000 nM; in experiment [2] (Soy PI lipid substrate), below 500 nM; in experiment [3], below 50 nM.
For `Cc1cc(C(C)Nc2ccccc2C(=O)O)c2oc(-c3cnc4nn(C)cc4c3)cc(=O)c2c1` (stereo not drawn) [Example 9, 2-[1-[6-Methyl-2-(2-methylpyrazolo[3,4-b]pyridin-5-yl)-4-oxo-chromen-8-yl]ethylamino]benzoic acid], the IC50 was 500 to 1000 nM in experiment [1] (setting [4]), below 500 nM in experiment [2] (setting [4]) and above 500 nM in experiment [3].
As to `Cc1cc(C(C)Nc2ccccc2C(=O)O)c2oc(-c3ccc4c(C)nn(C)c4c3)cc(=O)c2c1` (single isomer, unassigned) [Example 27, 2-[1-[2-(1,3-Dimethylindazol-6-yl)-6-methyl-4-oxo-chromen-8-yl]ethylamino]benzoic acid], the IC50 is 500 to 1000 nM in experiment [1] (Soy PI lipid substrate), below 500 nM in experiment [2] (Soy PI lipid substrate) and below 50 nM in experiment [3].
Taken in the same sequence, the figures for `Cc1cc(C(C)Nc2ccccc2C(=O)O)c2oc(-c3cc4ccncc4o3)c(C)c(=O)c2c1` (single isomer, unassigned) [Example 151, 2-[1-(2-Furo[2,3-c]pyridin-2-yl-3,6-dimethyl-4-oxo-chromen-8-yl)ethylamino]benzoic acid] were 500 to 1000 nM, below 500 nM and below 50 nM.
`Cc1cc(C(C)Nc2cccc(F)c2C(=O)O)c2oc(-c3ccc4cnn(C)c4c3)cc(=O)c2c1` (single isomer, unassigned) [Example 221, 2-fluoro-6-[1-[6-methyl-2-(1-methylindazol-6-yl)-4-oxo-chromen-8-yl]ethylamino]benzoic acid]: the IC50 in experiment [1] (Soy PI lipid substrate) was 500 to 1000 nM; in experiment [2] (Soy PI lipid substrate), 1000 to 5000 nM; in experiment [3], above 500 nM.
On the same counts, the results for `Cc1cc(C(C)Nc2ccccc2C(=O)O)c2oc(-c3cccc4nn(C)cc34)cc(=O)c2c1` (single isomer, unassigned) [Example 111, 2-[1-[6-Methyl-2-(2-methylindazol-4-yl)-4-oxo-chromen-8-yl]ethylamino]benzoic acid] are 500 to 1000 nM, below 500 nM and 100 to 500 nM.
In the case of `C[C@@H](Nc1ccc(Cl)nc1C(=O)O)c1cc(C(F)(F)F)cc2c(=O)cc(-c3ccc4nn(C)cc4c3)oc12` [Example 169, 6-Chloro-3-[[(1R)-1-[2-(2-methylindazol-5-yl)-4-oxo-6-(trifluoromethyl)chromen-8-yl]ethyl]amino]pyridine-2-carboxylic acid], the IC50 was 500 to 1000 nM in experiment [1] (Soy PI lipid substrate), below 500 nM in experiment [2] (Soy PI lipid substrate) and 50 to 100 nM in experiment [3].
Taken in the same sequence, the figures for `Cc1cc(C(C)Nc2ccccc2C(=O)O)c2oc(-n3ncc4c(C)cccc43)cc(=O)c2c1` (single isomer, unassigned) [Example 88, 2-[1-[6-Methyl-2-(4-methylindazol-1-yl)-4-oxo-chromen-8-yl]ethylamino]benzoic acid] were 500 to 1000 nM, below 500 nM and 100 to 500 nM.
Take `Cc1cc(C(C)Nc2ccccc2C(=O)O)c2oc(-c3cccc4cn(C)nc34)cc(=O)c2c1` (single isomer, unassigned) [Example 116, 2-[1-[6-Methyl-2-(2-methylindazol-7-yl)-4-oxo-chromen-8-yl]ethylamino]benzoic acid]: the IC50 in experiment [1] (Soy PI lipid substrate) was above 10000 nM; in experiment [2] (Soy PI lipid substrate), below 500 nM; in experiment [3], 100 to 500 nM.
Take `Cc1cc(C(C)Nc2ccccc2C(=O)O)c2oc(-c3ccc4cnn(C)c4c3)cc(=O)c2c1` (single isomer, unassigned) [Example 25, 2-[1-[6-Methyl-2-(1-methylindazol-6-yl)-4-oxo-chromen-8-yl]ethylamino]benzoic acid]: the 50% inhibitory concentration (IC50) in experiment [1] (Soy PI lipid substrate) is below 500 nM; in experiment [2] (Soy PI lipid substrate), below 500 nM; in experiment [3], 50 to 100 nM.
As for `Cc1cc([C@@H](C)Nc2cccnc2C(=O)O)c2oc(-c3nn(C)c4ccccc34)cc(=O)c2c1` [Example 232, 3-[[(1R)-1-[6-Methyl-2-(1-methylindazol-3-yl)-4-oxo-chromen-8-yl]ethyl]amino]pyridine-2-carboxylic acid], the results for the IC50 in experiment [1] (Soy PI lipid substrate), in experiment [2] (Soy PI lipid substrate) and in experiment [3] were above 10000 nM, 500 to 1000 nM and 100 to 500 nM, respectively.
For the molecule `CC(Nc1ccccc1C(=O)O)c1cc(F)cc2c(=O)cc(-c3ccc4nn(C)cc4c3)oc12` (single isomer, unassigned) [Example 55, 2-[1-[6-Fluoro-2-(2-methylindazol-5-yl)-4-oxo-chromen-8-yl]ethylamino]benzoic acid], the IC50 in experiment [1] (Soy PI lipid substrate) was 1000 to 5000 nM; in experiment [2] (Soy PI lipid substrate) it was below 500 nM; in experiment [3] it was below 50 nM.
As to `Cc1cc(C(C)Nc2ccccc2C(=O)O)c2oc(-c3ccc4c(cnn4C)c3)cc(=O)c2c1` (single isomer, unassigned) [Example 26, 2-[1-[6-Methyl-2-(1-methylindazol-5-yl)-4-oxo-chromen-8-yl]ethylamino]benzoic acid], the IC50 was below 500 nM in experiment [1] (Soy PI lipid substrate), below 500 nM in experiment [2] (Soy PI lipid substrate) and below 50 nM in experiment [3].
Regarding `Cc1cc([C@@H](C)Nc2ccc(F)cc2C(=O)O)c2oc(-c3ccc4nn(C)cc4c3)c(C)c(=O)c2c1` [Example 253, 2-[[(1R)-1-[3,6-Dimethyl-2-(2-methylindazol-5-yl)-4-oxo-chromen-8-yl]ethyl]amino]-5-fluoro-benzoic acid], the IC50 in experiment [1] (Soy PI lipid substrate) is below 500 nM; in experiment [2] (Soy PI lipid substrate), below 500 nM; in experiment [3], below 50 nM.
